From BindingDB's records for doi:10.7270/Q2BR8QM3 (Nmmlsc, 2008)

Molecular target: T1, Bcl-2-like protein 2 (Homo sapiens, UniProt Q92843)
T1 sequence (Q92843 whole entry): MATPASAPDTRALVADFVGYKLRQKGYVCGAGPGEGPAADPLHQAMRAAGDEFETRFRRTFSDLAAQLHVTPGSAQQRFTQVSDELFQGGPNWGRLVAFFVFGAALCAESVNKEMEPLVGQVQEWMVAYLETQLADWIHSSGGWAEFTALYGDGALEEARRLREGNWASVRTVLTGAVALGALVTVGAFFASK
Test: modulators of Bim-Bcl-W protein interaction, dose response, biochemical, multiplexed, bead-based flow cytometry, fluorescence (AID 1330)

[1] = inactive by the depositor's call

SMILES | EC50 | EC50 [1]
Nc1c(C(=O)NCC2CCCO2)sc2nc3c(c(-c4ccco4)c12)CC/C3=C\c1ccco1 (configuration not stated) [SMR000259502] | 2.36 µM | –
Nc1c(C(=O)NC2CC2)sc2nc3c(c(-c4ccco4)c12)CC/C3=C/c1ccco1 [SMR000259554] | 2.6 µM | –
O=C1c2ccccc2-c2onc3ccc(N4CCCC4)c1c23 [SMR000279741] | – | 10.9 µM
COc1cc(OC)c([N+](=O)[O-])cc1[CH+][N-]NC(=O)c1ccncc1 [SMR000306621] | – | 25.7 µM
CC(=NNC(=O)c1cc(O)c(O)c(O)c1)c1ccc([N+](=O)[O-])cc1 [SMR000312589] | 4.03 µM | –
O=C(CSc1ccc2nnc(-c3ccncc3)n2n1)Nc1nccs1 [SMR000320332] | – | 11.1 µM
Cc1nnc2ccc(-c3cccc(NC(=O)c4ccco4)c3)nn12 [SMR000324305] | 7.89 µM | –
O=C(Nc1cccc(Cl)c1)Nc1ccnc(-c2cccnc2)n1 [SMR000337179] | – | 1.59 µM
CCN1/C(=C/C(C)=C/c2sc3ccccc3[n+]2CC)Sc2ccccc21 [SMR000354813] | 37.5 µM | –
Cc1ccnc(Nc2nc(-c3c(C)nc4sccn34)cs2)c1 [[4-(6-Methyl-imidazo[2,1-b]thiazol-5-yl)-thiazol-2-yl]-(4-methyl-pyridin-2-yl)-amine] | – | 15.7 µM
CCOC(=O)c1nc(Nc2ccc(C(=O)OC)cc2)c2ccccc2n1 [ethyl 4-(4-methoxycarbonylanilino)quinazoline-2-carboxylate] | – | 16.7 µM
CN(N=Cc1ccncc1)C1=NS(=O)(=O)c2ccccc21 [isonicotinaldehyde (1,1-dioxido-1,2-benzisothiazol-3-yl)(methyl)hydrazone] | – | 2.73 µM
